Counter-ions that a name gives are not always drawn. Like-named read-outs stand apart in the source and are kept apart here.
Columns and labels:
EGFR = target: T1, EGFR (Homo sapiens, UniProt P00533); test: EGFR in-cell Western (ICW) screening protocol (EGFR inhibition assay); assay type: cell-based; parameters: ICW 1 / ICW 2 / ICW Avg: unit not given here; details: for ICW Avg / ICW 1 / ICW 2: ICW assay; for ICW Avg: average of runs 1 and 2; for ICW 1: run 1; for ICW 2: run 2; for ICW assay: Table 10
T1 construct: host or cells: A431
In short: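 In-cell Western read-out: fixed A431 cells were co-stained for total EGFR and phospho-EGFR (Tyr1173; some runs Tyr1045). Before fixation, cells were serum-starved for 2 h, exposed to compound for 4 h, then given EGF for 10 min, usually at 10 ng/ml final (6.6 or 12.5 ng/ml in some runs).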

[1] = system: epithelial carcinoma A431 cell line; test: MTT Cell Proliferation Assay, A431 cells; assay type: cell-based; details: for IC50: Homo sapiens; for MTT Follow-up: ratio in parentheses: ratio MDBK/A431; for MTT Assay IC50(A431/MDBK): ratio in parentheses: ratio MDBK IC50 / A431 IC50 (selectivity)
In short: (§1)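 Each concentration ran in quadruplicate across duplicate plates, with compounds serially diluted in DMSO and delivered at 0.5% DMSO in 0.5% FBS medium for 3 days.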

MDBK line = test: MTT Cell Proliferation Assay, MDBK cells; assay type: cell-based, bovine
In short: as §1

[2] = A-431, follow-up MTT, A431 cells, first value, read-out: MTT Follow-up: A431
[3] = Bos taurus, MDBK, follow-up MTT, MDBK cells, second value, read-out: MTT Follow-up: MDBK
[4] = A-431, A431 cells, first value of cell, read-out: MTT Assay IC50(A431/MDBK): A431
[5] = Bos taurus, MDBK, MDBK cells, second value of cell, read-out: MTT Assay IC50(A431/MDBK): MDBK
[6] = % Inhibition of EGF dependent EGFR phosphorylation in A431 cells, compound 125 μM in assay
[7] = A-431, 72 h, Table 10, first of x/y(ratio): A431, three day treatment, unit not printed (doses in μM), read-out: MTT assay (first value)
[8] = Bos taurus, MDBK, 72 h, Table 10, second of x/y(ratio): MDBK, three day treatment, unit not printed (doses in μM), read-out: MTT assay (second value)
[9] = A-431, first value of 'a/b (c)', taken as A431 cells, read-out: MTT Screen, first value of cell
[10] = Bos taurus, MDBK, second value of 'a/b (c)', taken as MDBK cells, read-out: MTT Screen, second value of cell

T1 sequence (P00533 25-1210): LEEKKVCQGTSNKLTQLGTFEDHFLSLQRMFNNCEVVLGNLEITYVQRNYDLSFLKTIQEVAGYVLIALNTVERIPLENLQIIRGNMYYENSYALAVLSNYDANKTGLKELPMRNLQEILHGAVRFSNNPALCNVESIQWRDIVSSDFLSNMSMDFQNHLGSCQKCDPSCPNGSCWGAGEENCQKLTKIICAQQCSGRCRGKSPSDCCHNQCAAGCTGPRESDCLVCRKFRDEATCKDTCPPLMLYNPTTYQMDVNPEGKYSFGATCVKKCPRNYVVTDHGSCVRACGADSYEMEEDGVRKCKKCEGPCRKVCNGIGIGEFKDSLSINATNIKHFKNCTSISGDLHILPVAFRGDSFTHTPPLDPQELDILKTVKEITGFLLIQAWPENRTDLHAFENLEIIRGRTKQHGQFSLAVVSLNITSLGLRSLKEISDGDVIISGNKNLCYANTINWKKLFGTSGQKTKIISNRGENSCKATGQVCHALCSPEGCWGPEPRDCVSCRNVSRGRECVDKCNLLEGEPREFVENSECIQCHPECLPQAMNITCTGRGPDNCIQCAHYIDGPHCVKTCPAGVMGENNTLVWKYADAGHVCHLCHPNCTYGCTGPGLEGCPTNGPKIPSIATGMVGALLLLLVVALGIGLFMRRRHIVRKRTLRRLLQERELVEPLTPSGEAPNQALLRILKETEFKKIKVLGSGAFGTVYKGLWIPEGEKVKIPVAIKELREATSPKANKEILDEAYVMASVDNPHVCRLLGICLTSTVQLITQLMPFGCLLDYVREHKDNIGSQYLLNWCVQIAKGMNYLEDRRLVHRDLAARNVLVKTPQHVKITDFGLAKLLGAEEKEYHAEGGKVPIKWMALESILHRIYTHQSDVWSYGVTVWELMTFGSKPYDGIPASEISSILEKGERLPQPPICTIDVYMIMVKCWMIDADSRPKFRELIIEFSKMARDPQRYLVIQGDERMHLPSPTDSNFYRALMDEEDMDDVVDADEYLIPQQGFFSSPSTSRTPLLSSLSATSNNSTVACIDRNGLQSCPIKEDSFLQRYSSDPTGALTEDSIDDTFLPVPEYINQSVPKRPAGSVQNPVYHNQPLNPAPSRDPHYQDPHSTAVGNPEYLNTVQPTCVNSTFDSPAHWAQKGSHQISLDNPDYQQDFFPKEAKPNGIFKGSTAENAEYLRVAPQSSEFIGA

ICW Avg (EGFR) | ICW 1 (EGFR) | ICW 2 (EGFR) | IC50 [1, 4] [µM] | ICW assay (EGFR; [6]) | IC50 [1, 7] [µM] | SMILES | IC50 (MDBK line; [5]) [µM] | other results
37.09 | 40.96 | 33.21 |  |  |  | CCOc1cccc2c(C)nc(Nc3nc(CSc4ccc(C)cc4)cc(=O)[nH]3)nc12 [compound 11755] |  | MTT Assay IC50(A431/MDBK): A431 ([1]; A431 cells, first value of cell): non-convergent; IC50 [1, 2]: 14.1 µM; MTT Follow-up: ratio in parentheses [1]: 0.23; IC50 (MDBK line; [3]): 3.24 µM
27.21 | 20.34 | 34.09 | 19.4 |  |  | CCCc1c(C)nc(Nc2nc(C)c3cc(C)c(C)cc3n2)[nH]c1=O [12614 + TFA] | 7.56 | MTT Assay IC50(A431/MDBK): ratio in parentheses [1]: 0.39
 |  |  |  | 29.4151 | 6.62 | COc1ccc(NS(=O)(=O)c2ccc(NC(=S)Nc3ccccc3C(F)(F)F)cc2)cc1 [AD4-12577] |  | IC50 (MDBK line; [8]): 5.92 µM
 |  |  |  | 118.637 | 6.51 | O=S(=O)(Nc1ccccc1)c1ccc(NC(=S)Nc2ccc(F)c(Cl)c2)cc1 [AD4-12851] |  | IC50 (MDBK line; [8]): 5.39 µM
 |  |  |  |  |  | CCOc1ccc(NS(=O)(=O)c2ccc(NC(=S)NC(=O)CC)cc2)cc1 [AD4-11409] |  | ICW Screen (ICW Inhibition) (EGFR): 74.94; IC50 [1, 9]: 17.2 µM; IC50 (MDBK line; [10]): 11.7 µM
31.05 | 37.00 | 25.09 | 35.1 |  |  | Cc1ccc(SCc2cc(=O)[nH]c(Nc3nc(C)c4cc(C)cc(C)c4n3)n2)cc1 [11727 + TFA] | 16.1 | MTT Assay IC50(A431/MDBK): ratio in parentheses [1]: 0.46
 |  |  |  |  |  | COc1ccc(NS(=O)(=O)c2ccc(NC(=S)NC(=O)C3CCCC3)cc2)cc1 [AD4-12119] |  | ICW Screen (ICW Inhibition) (EGFR): 55.94; IC50 [1, 9]: 18.6 µM; IC50 (MDBK line; [10]): 14.6 µM
 |  |  |  |  |  | CN1CCN(S(=O)(=O)c2ccc(NC(=S)NC(=O)/C=C/c3ccccc3)cc2)CC1 [AD4-12145] |  | ICW Screen (ICW Inhibition) (EGFR): 30.469; IC50 [1, 9]: 40.5 µM; IC50 (MDBK line; [10]): 41.8 µM
 |  |  |  | 26.1431 | 11.8 | CC1CCc2cc(F)ccc2N1S(=O)(=O)c1ccc(NC(=S)Nc2ccc(Br)cc2)cc1 (stereo not drawn) [AD4-12813] |  | IC50 (MDBK line; [8]): 13.6 µM
26.67 | 39.76 | 13.58 | 14.2 |  |  | Cc1ccc2nc(Nc3nc(C)cc(C(F)(F)F)n3)nc(C)c2c1 [11816 + TFA] | 28.1 | MTT Assay IC50(A431/MDBK): ratio in parentheses [1]: 1.99
68.05 | 66.55 | 69.55 | 2.44 |  |  | COc1cccc2c(C)nc(Nc3nc(-c4ccccc4)cc(=O)[nH]3)nc12 [compound 11741] | 2.44 | IC50 [1, 2]: 51.5 µM; MTT Follow-up: ratio in parentheses [1]: 1.01; IC50 (MDBK line; [3]): 51.9 µM
 |  |  |  | 27.1482 | 19.8 | CCN(c1ccccc1)S(=O)(=O)c1ccc(NC(=S)Nc2ccccc2)cc1 [AD4-11430] |  | IC50 (MDBK line; Table 10, second of x/y(ratio): MDBK, three day treatment, unit not printed (doses in μM), read-out: MTT assay (second value)): 16.8 µM
25.37 | 30.73 | 20.02 | 5.31 |  |  | CC1(C)CC(=O)c2cnc(Nc3nc(-c4ccccc4)c4cc(Cl)ccc4n3)nc2C1 [11807 + TFA] | 17.8 | MTT Assay IC50(A431/MDBK): ratio in parentheses [1]: 3.35
 |  |  |  | 51.4082 | 6.92 | O=S(=O)(Nc1ccccc1)c1ccc(NC(=S)Nc2ccc(Cl)cc2Cl)cc1 [AD4-12822] |  | IC50 (MDBK line; [8]): 7.04 µM
 |  |  |  |  |  | CC(C)c1ccc2oc(=O)cc(CN3CCN(C/C=C/c4ccccc4)CC3)c2c1 [AD4-10188] |  | ICW Screen (EGFR; Table 11, % Inhibition of EGF dependent EGFR phosphorylation in A431 cells, compound 125 μM in assay): 53.35; IC50 ([1]; A-431, Table 11, first of x/y(ratio): A431, unit not printed (doses in μM), read-out: MTT Screen (first value)): 9.05 µM; IC50 (MDBK line; Bos taurus, MDBK, Table 11, second of x/y(ratio): MDBK, unit not printed (doses in μM), read-out: MTT Screen (second value)): 16.3 µM
 |  |  |  |  |  | Cc1ccc(NS(=O)(=O)c2ccc(NC(=S)NC(=O)CCc3ccccc3)cc2)cc1C [AD4-11419] |  | ICW Screen (ICW Inhibition) (EGFR): 40.289; IC50 [1, 9]: 31.3 µM; IC50 (MDBK line; [10]): 38.8 µM
 |  |  |  | 42.2628 | 31.8 | CC1CCc2cc(F)ccc2N1S(=O)(=O)c1ccc(NC(=S)Nc2ccc(F)cc2)cc1 (stereo not drawn) [AD4-12850] |  | IC50 (MDBK line; [8]): 35.8 µM
45.72 | 52.69 | 38.76 | 5.32 |  |  | Cc1nc(Nc2nc(C)c3cccc(C)c3n2)[nH]c(=O)c1Cc1ccccc1 [12611 + TFA] | 5.31 | MTT Assay IC50(A431/MDBK): ratio in parentheses [1]: 1.00
